Measured values from PMC8672067, “Inhibitors of the Bub1 spindle assembly checkpoint kinase: synthesis of BAY-320 and comparison with 2OH-BNPP1” (Royal Society Open Science, 2021).
pIC50: −log10 of the molar value.

Molecular target: T1, Bub1 (Homo sapiens, UniProt O43683)
T1 construct: full-length Bub1 with an N-terminal GFP tag (GFP-Bub1), purified from HEK-293 cells on beads
Assay: in vitro kinase assay with purified GFP-Bub1 and H2A, H2ApT120 immunoblot, […] ATP
Assay type: biochemical

T1 sequence (O43683 whole entry): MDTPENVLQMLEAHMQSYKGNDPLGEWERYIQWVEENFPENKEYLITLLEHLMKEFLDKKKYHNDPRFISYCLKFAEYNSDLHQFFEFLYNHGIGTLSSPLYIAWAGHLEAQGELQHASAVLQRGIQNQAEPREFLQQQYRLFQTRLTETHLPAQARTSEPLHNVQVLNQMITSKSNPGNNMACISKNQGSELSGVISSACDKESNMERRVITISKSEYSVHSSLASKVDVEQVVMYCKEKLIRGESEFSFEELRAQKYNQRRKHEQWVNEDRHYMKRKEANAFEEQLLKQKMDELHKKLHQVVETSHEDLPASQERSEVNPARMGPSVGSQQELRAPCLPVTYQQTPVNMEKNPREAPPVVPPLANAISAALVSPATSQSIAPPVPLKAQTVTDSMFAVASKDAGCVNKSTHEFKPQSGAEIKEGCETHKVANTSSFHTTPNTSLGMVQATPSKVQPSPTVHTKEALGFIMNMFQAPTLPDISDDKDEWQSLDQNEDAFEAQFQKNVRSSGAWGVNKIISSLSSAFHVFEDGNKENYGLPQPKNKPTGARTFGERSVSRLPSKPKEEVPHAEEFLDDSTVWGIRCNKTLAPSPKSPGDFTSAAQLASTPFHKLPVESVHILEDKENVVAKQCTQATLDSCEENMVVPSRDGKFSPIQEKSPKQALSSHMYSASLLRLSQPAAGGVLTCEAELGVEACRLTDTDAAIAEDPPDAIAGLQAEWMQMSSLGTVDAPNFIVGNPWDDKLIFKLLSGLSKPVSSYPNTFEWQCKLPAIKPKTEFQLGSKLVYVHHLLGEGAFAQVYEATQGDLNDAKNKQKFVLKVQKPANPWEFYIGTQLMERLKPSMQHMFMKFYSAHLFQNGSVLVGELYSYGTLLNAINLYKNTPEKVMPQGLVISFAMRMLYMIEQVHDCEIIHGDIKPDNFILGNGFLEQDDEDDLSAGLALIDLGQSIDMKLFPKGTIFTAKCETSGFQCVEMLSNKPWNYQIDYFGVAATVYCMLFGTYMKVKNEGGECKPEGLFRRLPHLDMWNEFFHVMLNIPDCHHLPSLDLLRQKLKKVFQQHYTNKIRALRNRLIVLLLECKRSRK

pIC50	SMILES
6.22	CC(C)(C)n1nc(Cc2ccccc2O)c2c(N)ncnc21 [2OH-BNPP1]
6.25	CCOc1cc(F)c(Cn2nc(-c3ncc(OC)c(Nc4ccncc4)n3)c(C)c2C2CC2)c(F)c1 [compound 11, 2-[5-Cyclopropyl-1-(4-ethoxy-2,6-difluorobenzyl)-4-methyl-1H-pyrazol-3-yl]-5-methoxy-N-(pyridine-4-yl)pyrimidin-4-amine]
